# Assay results: patent publication US8030004B2, “Cell free screening assay and methods of use” (Oregon Health & Science University, priority 2005, dated 2011)
# Entries after “also recorded” stand apart in the source; their conditions may differ.
# Experiments:
# Type in all cases: biochemical
# xFANCA, xFANCF, xFANCD2 = experiment: Chromatin binding of xFA proteins in replicating S-phase Xenopus egg extracts with sperm chromatin; settings: for chromatin binding of xFA proteins (xFANCA, xFANCF, xFANCD2): replicating S-phase extracts with sperm chromatin
# Description: Following replication (60 minutes), chromatin was re-isolated and the same blot was assayed in series for the presence of the xFA proteins indicated. A non-specific band is indicated (asterisk) as a loading control. […] A replication assay was performed to monitor incorporation of α-^32P-GTP during one round of replication in extracts treated as indicated. Total amounts of replication products at 60 minutes following addition of sperm chromatin to non-treated or treated extracts were analyzed by agarose gel electrophoresis and exposure to X-ray film. Band density percentages were determined using a BioRad Molecular PhosphorImager Fx (Kodak screens, Quantity-1 software). […] 1000 sperm pronuclei/ul were added to replicating extracts containing different concentrations of MMC (lanes 3-9). Extracts were otherwise untreated or contained caffeine (lanes 6+7) or a neutralizing anti-xATR antibody (lanes 8+9). MMC-concentrations: 150 μM (lanes 3, 6, 8), 50 μM (lanes 4, 7, 9), or 5 μM (lane 5). […] Sperm chromatin was added to S-phase egg extracts. Xenopus egg extracts were either untreated (−) or aphidicolin was added (+) at the indicated time points following addition of sperm DNA: 0 minutes, pre-nuclear membrane formation; 30 minutes, beginning of replication; 60 minutes, mid-replication; 90 minutes late/post-replication; and 120 minutes, post replication. All chromatin fractions were re-isolated at 135 minutes following addition of sperm DNA, analyzed by SDS-PAGE and immunoblotted as indicated. […] Xenopus egg extracts were treated with beads coupled to preimmune serum (lanes 2, 3, and 5) or beads coupled to anti-xATRIP serum (lanes 1, 4, and 6). Sperm chromatin was added to preimmune or xATRIP depleted extracts and allowed to replicate. Xenopus egg extracts were either untreated or supplemented with aphidicolin (added at 50 minutes following addition of sperm DNA). Chromatin fractions were re-isolated at 70 minutes and assayed for the presence of xFANCD2, xFANCA, xATRIP and xORC-2 by immunoblotting. […]
# DNA replication = DNA replication assay of sperm chromatin in S-phase Xenopus egg extracts
# Description: Following replication (60 minutes), chromatin was re-isolated and the same blot was assayed in series for the presence of the xFA proteins indicated. A non-specific band is indicated (asterisk) as a loading control. […] A replication assay was performed to monitor incorporation of α-^32P-GTP during one round of replication in extracts treated as indicated. Total amounts of replication products at 60 minutes following addition of sperm chromatin to non-treated or treated extracts were analyzed by agarose gel electrophoresis and exposure to X-ray film. Band density percentages were determined using a BioRad Molecular PhosphorImager Fx (Kodak screens, Quantity-1 software). […] 1000 sperm pronuclei/ul were added to replicating extracts containing different concentrations of MMC (lanes 3-9). Extracts were otherwise untreated or contained caffeine (lanes 6+7) or a neutralizing anti-xATR antibody (lanes 8+9). MMC-concentrations: 150 μM (lanes 3, 6, 8), 50 μM (lanes 4, 7, 9), or 5 μM (lane 5). […] Sperm chromatin was added to S-phase egg extracts. Xenopus egg extracts were either untreated (−) or aphidicolin was added (+) at the indicated time points following addition of sperm DNA: 0 minutes, pre-nuclear membrane formation; 30 minutes, beginning of replication; 60 minutes, mid-replication; 90 minutes late/post-replication; and 120 minutes, post replication. All chromatin fractions were re-isolated at 135 minutes following addition of sperm DNA, analyzed by SDS-PAGE and immunoblotted as indicated. […] Xenopus egg extracts were treated with beads coupled to preimmune serum (lanes 2, 3, and 5) or beads coupled to anti-xATRIP serum (lanes 1, 4, and 6). Sperm chromatin was added to preimmune or xATRIP depleted extracts and allowed to replicate. Xenopus egg extracts were either untreated or supplemented with aphidicolin (added at 50 minutes following addition of sperm DNA). Chromatin fractions were re-isolated at 70 minutes and assayed for the presence of xFANCD2, xFANCA, xATRIP and xORC-2 by immunoblotting. […] Xenopus egg extracts were treated with beads coupled to preimmune serum (lanes 1 and 3) or beads coupled to anti-xFANCA serum (lanes 2 and 4). Sperm chromatin was added to preimmune or xFANCA depleted extracts and allowed to replicate. Xenopus egg extracts were either untreated or supplemented with aphidicolin (added at 50 minutes following addition of sperm DNA). Chromatin fractions were re-isolated at 70 minutes and assayed for the presence of xFANCA, xATRIP and xORC-2 by immunoblotting.
# Preparation of Xenopus egg extracts: Extracts were prepared from Xenopus eggs according to the method of Murray (Murray, Methods Cell Biol. 36:581-605, 1991). In brief, eggs were de-jellied in 2% cysteine, pH 7.8, washed three times in XB buffer (10 mM KCl, 1 mM MgCl2, […] CaCl2, 10 mM HEPES, 5 mM ethylene glycol tetraacetic acid (EGTA), 1.75% w/v sucrose, pH 7.8) and washed three times in CSF-XB buffer (5 mM EGTA, 2 mM MgCl2). Eggs were crushed by low speed centrifugation (10,000 g, 10 minutes) and the cytoplasmic fraction was cleared by centrifugation (16,000 g, 20 minutes) after the addition of energy mix (15 mM creatine phosphate, 2 mM ATP, 2 mM MgCl2), cytochalasin B (10 μg/ml), cycloheximide (100 μg/ml), and PEFABLOC™ (4-(2-aminoethyl)benzenesulfonylfluoride) (100 μg/ml). In some of the examples described herein, the extracts were released from M to S phase by the addition of CaCl2 to a final concentration of 0.4 mM. In some examples, the released extracts were incubated for 20 minutes at 23° C. Where indicated, mitomycin C (5-150 μM) and caffeine (4 mM), Tautomycin (3 uM), etoposide (30 or 60 uM), and ICRF-193 (150 and 300 uM) were added to S-phase extracts immediately prior to the addition of DNA substrates or sperm chromatin and incubated for the time indicated; aphidicolin (50 ng/1 μl), was added at the time points indicated.
# xFANCM = experiment: Xenopus egg cell free extract: xFANCM mobility shift (phosphorylation) upon addition of DNA, immunoblot; settings: natural product screen membranes reprobed with xFANCM antibody (FIG. 7B)
# Description: 10 ul Xenopus egg extracts was combined with 0.5 ul compound (10 mM) or curcumin (control, 23 uM) then 0.5 ul plasmid DNA (pBluescript, 3.4 ug/ul) was added. The sample was incubated for 45 min at room temperature, then 60 ul of 1×SDS loading buffer. After incubation at 95° C. for 10 min, samples were resolved onto a NUPAGE™ 3-8% tris-acetate gradient gel (Invitrogen) and transferred onto a PVDF membrane (Immobilon P, Millipore).
# Of the 235 compounds tested 7 (NP-A3, NP-A7, NP-D8, NP-E3, NP-F2, NP-F8, NP-H8) were positive for modulation of xFANCD2 activation (see FIG. 14). Membranes initially probed with xFANCD2 antibody were reprobed with xFANCM antibody. […] Thus xFANCM can be used as an indicator of Fanconi anemia pathway activation.
# xFANCD2 = experiment: Induction of xFANCD2-L by circular plasmid dsDNA in Xenopus egg cell free extracts, immunoblot; settings: for induction of xFANCD2-L in the presence of circular plasmid DNA: 200 ng/ul circular plasmid dsDNA, etoposide 30 or 60 uM, ICRF-193 150 or 300 uM
# Description: FIG. 13A is a digital image of an immunoblot showing Xenopus egg cell free extracts that were incubated with 160 ng/ul circular plasmid dsDNA for 30 min in the presence or absence of the replication initiation inhibitor geminin. Efficiency of replication inhibition was measured by performing a parallel replication assay using an aliquot of the geminin-treated extract (smaller panel in figure FIG. 13A). FIG. 13B is a digital image of an immunoblot showing that non-activated, M-phase egg extracts or CaCl2-activated, S-phase egg extracts were incubated with 160 ng/ul circular plasmid dsDNA. Extract aliquots (1 ul) were taken at the indicated time points and analyzed for xFANCD2 and xMre11. […] FIG. 13C is a digital image of an immunoblot showing Xenopus egg cell free extracts that were incubated with 160 ng/ul circular plasmid dsDNA for 30 min in the presence or absence of the checkpoint kinase inhibitor caffeine. Where indicated, extracts were supplemented with the phosphatase inhibitor, tautomycin, to stabilize xMre11-PPP. Following incubation, 1 ul of extract was analyzed for xFANCD2 and xMre11 by immunoblot. DNA-free extract was used as a size control for xFANCD2-S and xMre11 (lane 1). FIG. 13D is a digital image of an immunoblot showing Xenopus egg cell free extracts that were incubated either with bead-coupled anti-xATRIP antibody or with bead-coupled pre-immune serum and incubated with 200 ng/ul circular plasmid dsDNA. Aliquots were taken at different time points and assayed for xFANCD2 by immunoblot. 1 ul of DNA-free extract was used as a size control for xFANCD2-S (lane 5). […] Xenopus egg cell free extracts containing 200 ng/ul of circular plasmid dsDNA were incubated with etoposide (30 uM, lane 2; 60 uM, lane 3) or ICRF-193 (150 uM, lane 4; 300 uM, lane 5). Xenopus egg cell free extracts containing 200 ng/ul of circular plasmid dsDNA but not topoisomerase IIα inhibitor were used as positive control and DNA-free extracts were used as negative control for induction of xFANCD2-L. […]
# xMre11 = experiment: Induction of xMre11-PPP by plasmid DNA in Xenopus egg cell free extracts, immunoblot
# Description: FIG. 13A is a digital image of an immunoblot showing Xenopus egg cell free extracts that were incubated with 160 ng/ul circular plasmid dsDNA for 30 min in the presence or absence of the replication initiation inhibitor geminin. Efficiency of replication inhibition was measured by performing a parallel replication assay using an aliquot of the geminin-treated extract (smaller panel in figure FIG. 13A). FIG. 13B is a digital image of an immunoblot showing that non-activated, M-phase egg extracts or CaCl2-activated, S-phase egg extracts were incubated with 160 ng/ul circular plasmid dsDNA. Extract aliquots (1 ul) were taken at the indicated time points and analyzed for xFANCD2 and xMre11. […] FIG. 13C is a digital image of an immunoblot showing Xenopus egg cell free extracts that were incubated with 160 ng/ul circular plasmid dsDNA for 30 min in the presence or absence of the checkpoint kinase inhibitor caffeine. Where indicated, extracts were supplemented with the phosphatase inhibitor, tautomycin, to stabilize xMre11-PPP. Following incubation, 1 ul of extract was analyzed for xFANCD2 and xMre11 by immunoblot. DNA-free extract was used as a size control for xFANCD2-S and xMre11 (lane 1). […]
# [1] = high concentration of circular plasmid DNA (100 ng/ul), caffeine or geminin added
compound,measurement,setting,value
"CO[C@@]12[C@H](COC(N)=O)C3=C(C(=O)C(C)=C(N)C3=O)N1C[C@@H]1N[C@@H]12 [MMC, mitomycin C]","chromatin binding of xFA proteins (xFANCA, xFANCF, xFANCD2)","xFANCA, xFANCF, xFANCD2",increased
same,replication (incorporation of radiolabeled nucleotides into nascent DNA),DNA replication; 60 minutes after addition of sperm chromatin (FIG. 3A top right),reduced
same,DNA replication,DNA replication; MMC 150 μM,significantly blocked
same,DNA replication,"DNA replication; lower MMC concentrations (50 μM, 5 μM)",less inhibited
"C[C@@]12C(=O)OC(=O)[C@]1(C)[C@H]1CC[C@@H]2O1 [NP-B11, cantharidin]",shift corresponding to xFANCM phosphorylation upon addition of DNA,xFANCM,stimulates the post-translational modification of xFANCM or inhibits the dephosphorylation of xFANCM; also recorded: strongly stimulated
C[C@@]1(CO)[C@H](O)CC[C@@]2(C)[C@H]1CC[C@H]1C[C@@H]3C[C@@]12CC[C@]3(O)CO [aphidicolin],"chromatin binding of xFA proteins (xFANCA, xFANCF, xFANCD2)","xFANCA, xFANCF, xFANCD2",increased chromatin association
Cn1c(=O)c2c(ncn2C)n(C)c1=O [caffeine],activation of xFANCD2-L by circular plasmid DNA,xFANCD2; [1],not significantly affected
same,MMC-induced recruitment of xFA proteins to chromatin,"xFANCA, xFANCF, xFANCD2; MMC-treated replicating extracts plus caffeine",reversed
same,rescue of MMC-blocked replication,DNA replication; MMC 150 μM plus caffeine,could not be rescued
same,rescue of MMC-reduced replication,DNA replication; MMC-treated extracts plus caffeine (FIG. 3A top right),rescued
same,rescue of MMC-inhibited replication,DNA replication; lower MMC concentration (50 μM) plus caffeine,could be rescued
same,induction of Mre11-PPP in response to dsDNA fragments,xMre11; dsDNA fragments generated by HaeIII-digest,inhibited
same,induction of xMre11-PPP by circular plasmid DNA,xMre11; [1],inhibited
COc1cc([C@@H]2c3cc4c(cc3[C@@H](O[C@@H]3O[C@@H]5CO[C@@H](C)O[C@H]5[C@H](O)[C@H]3O)[C@H]3COC(=O)[C@H]23)OCO4)cc(OC)c1O [etoposide],induction of xFANCD2-L in the presence of circular plasmid DNA,xFANCD2,significantly blocked
ICRF-193,induction of xFANCD2-L in the presence of circular plasmid DNA,xFANCD2,significantly blocked
